Assay: Human HepG2 cell viability assay in 384 well format
Type: toxicity, cell-based
Parameters: dose 125 nL, time 70.5 hour; cytotoxicity at 70.5 h: concentration not given beside the values
Conditions: HepG2 cells, read-out: Inhibition

| Compound | cytotoxicity at 70.5 h |
| --- | --- |
| Cc1noc(C)c1CN(C)Cc1csc(-c2ccc(F)cc2)n1 | -8.1% |
| Cc1cncc(C2CCCN(Cc3cccn3C)C2)n1 (centres undefined) | 0.452% |
| CN(CCOc1ccccc1F)C1CCOC1=O (centres undefined) | -1.46% |
| COCCN1Cc2ccnn2CC(COCc2cccnc2)C1 (centres undefined) | -5.12% |
| COCCCNc1c(-c2ccc(Cl)cc2)c(=O)c1=O | 6.7% |
| Cc1nc(-c2ccc(F)cc2)nc2c1CCN(C(=O)CN(C)C)CC2 | -1.65% |
| CCn1cc(Br)c(C(=O)NCc2ccccc2)n1 | 1.89% |
| CC(C)c1noc(C(C)N2CCN(Cc3ccccc3C#N)CC2)n1 (centres undefined) | 2.84% |
| CCOc1ccccc1-c1noc(CN2CCN(CCOC)CC2)n1 | -6.13% |
| COc1cc(-n2cccc2)c(Cl)cc1C(N)=O | -3.56% |
| Cn1ccnc1C1CCN(CCN2CCOCC2)CC1 | -8.74% |
| CCN(C(=O)c1cccc2c1OCO2)c1ccc(Br)cn1 | -7.06% |
| CCCC(C)NCc1cnc(-c2cccc(C)c2)nc1 (centres undefined) | 1.72% |
| CN(C)CCN1CCOCC2(CCCN(C(=O)c3ccoc3)C2)C1 (centres undefined) | 1.59% |
| CCOc1cccc(COC(=O)c2scnc2C)n1 | 5.38% |
| CN(Cc1noc2c1CCCC2)C(=O)Cn1cnc2ccccc2c1=O | -9.78% |
| NC1CCc2nc(-c3ccncc3)nc(Nc3cccc(F)c3)c2C1 (centres undefined) | 9.56% |
| N#Cc1cccc(OCCN2CCCC(c3noc(C4CC4)n3)C2)c1 (centres undefined) | -5.39% |
| CCCC1SCCN1C(=O)c1ccc(-n2ncc(C#N)c2N)cc1 (centres undefined) | -3.53% |
| CC(C)CN1C[C@@H]2OCC(=O)N(c3ccccc3)[C@@H]2C1 | -15.4% |
| COCc1n[nH]c2c1CN(Cc1ccccn1)C2 | -9.17% |
| Cc1ccc(CN2CCOCC3(C2)CN(c2ccc(C)s2)C(=O)CO3)o1 (centres undefined) | 0.222% |
| CC(C)CN1CCNC(=O)C12CCN(S(=O)(=O)c1ccc(F)cc1)CC2 | -3.61% |

| Compound | cytotoxicity at 70.5 h |
| --- | --- |
| O=C1NCCN1C1CCN(CCc2cccs2)CC1 | -11.4% |
| CC(NC(=O)CN(C)C(C)C)c1ccc(Oc2cccnc2)c(F)c1 (centres undefined) | -4.91% |
| COCCc1noc(CN(C)C(=O)c2cccc(N3CCCC3=O)c2)n1 | -17% |
| CO[C@@H]1CCC[C@@H](NC(=O)C(C)(C)c2cccc(F)c2)[C@H]1O | -7.35% |
| CN(C)S(=O)(=O)N1CCC(OCCCc2ccccc2)C1 (centres undefined) | -0.922% |
| c1cc(-c2cn[nH]c2)ccc1CN1CCNCC1 | -3.83% |
| CN(CCN1CCCCCC1)c1nccc(N2CCC(O)C2)n1 (centres undefined) | -6.64% |
| c1ccc(OCCNc2ncnc3sc4c(c23)CCNC4)cc1 | 1.62% |
| CS(=O)(=O)NC[C@H]1OC[C@@H]2CCN(CCc3ccccc3)C[C@@H]21 | 17.3% |
| Cc1nc(CN(C)C(=O)CNC(=O)c2ccc(C#N)cc2)cs1 | -8.22% |
| CC(C)CN(CC(F)(F)F)S(=O)(=O)c1cc(C(N)=O)n(C)c1 | 1.58% |
| Cc1nc(CNCC2CNc3ccnn3C2)cs1 (centres undefined) | -7.55% |
| CCO[C@H]1COC[C@@H]1NC(=O)CCc1nc(-c2ccccc2)no1 | -8.01% |
| Cc1cc(C(=O)N2CCCC(c3nccn3C)C2)cc(S(N)(=O)=O)c1C (centres undefined) | -5.68% |
| Cc1ccccc1C(O)CNS(=O)(=O)Cc1cccc(C#N)c1 (centres undefined) | -3.55% |
| Cc1ccc(C)c(OCCNC(=O)C2CCOC2)c1 (centres undefined) | -1.02% |
| c1cc(COC[C@]23COC[C@H]2CN(Cc2ccsc2)C3)ccn1 | 7.32% |
| Cc1cc(C(=O)NC2CCN(C(=O)Nc3cccnc3)CC2)c(C)o1 | -9.09% |
| COCCNC(=O)Nc1cc2c(cc1SC)OCCO2 | -4.52% |
| Cc1noc(C)c1CNS(=O)(=O)N(C)Cc1ccc(Cl)cc1 | -5.95% |
| CCc1nc(NCCn2cccn2)c2c(n1)c(C)nn2C | -7.14% |
| O=C1CC2(CCN(Cc3ccoc3)C2)CN1c1cncnc1 (centres undefined) | -4.55% |
| CC(=O)N(C)Cc1ccccc1NCc1c(C)noc1C | -3.61% |

| Compound | cytotoxicity at 70.5 h |
| --- | --- |
| CCC(NC(=O)Nc1ccc(OC)c(C)c1)c1ccncc1 (centres undefined) | -4.85% |
| COc1ccc(C(C)NCCc2ccc(NC(C)=O)cc2)c(OC)c1 (centres undefined) | 0.0966% |
| Cc1cc(=O)[nH]c(=O)n1Cc1ccccc1 | -7.18% |
| CC(O)c1cccc(N2CCC3(CCC(=O)N(C4CCCC4)C3)CC2)n1 (centres undefined) | -2.86% |
| CC(C)c1nnc2n1CCN(Cc1cc(Cl)c3c(c1)OCO3)C2 | -1.27% |
| Cc1nc(CN2CCO[C@@H]3CN(C(=O)CC4CC4)CC[C@@H]3C2)cs1 | -13.3% |
| Cc1ccccc1N1CCN(C(=O)c2cnc(C3CC3)nc2)C(C)C1 (centres undefined) | -2.79% |
| NC(=O)CC1CCN(C(=O)c2cnc(-c3ccccc3F)s2)CC1 | -22.8% |
| O=C1NCC2(CCN(C(=O)c3ccc4c(c3)CCCO4)CC2)O1 | -1.35% |
| Cc1cc(C(=O)NCCN2CCC(C)CC2)nn1C(C)(C)C | -15.3% |
| Fc1cccnc1CN1CCCCC1c1ccn2ccnc2n1 (centres undefined) | 6.23% |
| CN(Cc1csc(-c2cccs2)n1)C(=O)CCn1ccc(=O)[nH]c1=O | 10.9% |
| O=C(NC1CC1)N1CCC2(CC1)C(=O)NCCN2Cc1ccccc1 | -13.6% |
| Cc1sc2c(C3CCCN(C)C3)nc(C)n2c1C (centres undefined) | 24.3% |
| CCC(=O)N1Cc2nccn2CC(CN(C)Cc2cccnc2)C1 (centres undefined) | -17.9% |
| CCN(Cc1nnsc1Cl)C(C)c1ccc(C#N)cc1 (centres undefined) | -3.23% |
| Fc1cnc(N2C[C@@H]3COC[C@]3(COc3ccccn3)C2)nc1 | 19.5% |
| CN(C)C(=O)N1CCN(CCCOc2ccccc2)[C@H]2CS(=O)(=O)C[C@H]21 | -5.64% |
| N#Cc1ccc(OCCN2CCc3cncnc3C2)cc1 | 0.4% |
| CSc1ccc(NS(=O)(=O)c2cnn(C)c2)cn1 | -1.76% |
| Cc1nc(C2CN(C)CCO2)cc(N2CCC(C(N)=O)CC2)n1 (centres undefined) | -10.6% |
| CCN(CC)C(C(=O)Nc1ccc2c(c1)CCC(=O)N2)c1ccccc1 (centres undefined) | -11.2% |
| CCc1nc(CN2CCCN(c3ncnc4sccc34)CC2)no1 | 16.3% |

| Compound | cytotoxicity at 70.5 h |
| --- | --- |
| Cn1cnc2c1CCN(CCCOc1ccc(S(C)(=O)=O)cc1)C2 | -11.2% |
| O=C([C@H]1C[C@H]2OCC[C@H]2N(Cc2ccccc2F)C1)N1CCCCO1 | -7.79% |
| COCCN1CCn2c(CN(C)C(C)C)cnc2C1 | -7.59% |
| NC[C@H]1CC[C@H](c2c(C(N)=O)sc3ccccc32)CC1 | -3.54% |
| Cc1nc(CNC(=O)c2cc(COc3cccc(F)c3)[nH]n2)n[nH]1 | 15.3% |
| Cc1cc(N2CCN(Cc3ccccc3)CC(O)C2)nc(N)n1 (centres undefined) | -2.11% |
| CC(C)OCCN(Cc1cccc(O)c1)C1CCC(O)CC1 (centres undefined) | -3.81% |
| FC(F)CNc1cnc(C2CCNCC2)cn1 | -5.8% |
| COc1cccc(OCCn2c(C)c(C)oc2=O)c1 | 0.585% |
| Cc1noc(C)c1CN1C[C@@H]2CC(F)(F)C[C@@H]2C1 | -2.12% |
| CC(C#N)CSc1ccccc1NCC(=O)NC(C1CC1)C1CC1 (centres undefined) | 8.68% |
| COCCN(C)C(C)Cc1ccccc1OC (centres undefined) | -11.8% |
| O=C(c1ccon1)N1CCc2ncnc(NCc3ccccn3)c2CC1 | 0.424% |
| Cc1nc(CN2CC(=O)N(C)c3ccccc3C2=O)no1 | -1.75% |
| Cn1c(C(=O)N(CC(N)=O)C2CCCC2)cc(Cl)c1Cl | -10.6% |
| NC(=O)CN(C(=O)Cc1cccc(C(F)(F)F)c1)C1CCCC1 | -2.84% |
| O=C(c1ccc(O)nc1)N1CCN(C(=O)c2ccc(F)cc2F)CC1 | -7.11% |
| CNC(=O)NC(=O)C(C)N1CCN(C2CCCC2)CC1 (centres undefined) | -4.93% |
| Cc1cc(C(=O)N(C)Cc2cnn(C)c2)c(NC(=O)C(C)(C)C)s1 | -12.1% |
| Cc1nc(-c2cc(Cl)c3c(c2)CC(CN)O3)c[nH]1 (centres undefined) | 0.0695% |
| CCc1nc(CN(C(C)=O)C2CCN(CCc3cnn(C)c3)C2)no1 (centres undefined) | 21.3% |
| O=C(c1cocn1)N1C[C@@H]2COC[C@]2(COc2cccnc2)C1 | -4.92% |
| Cc1nn(C)c(C)c1CN(C)C(=O)c1cc(NC(=O)C2CC2)n(C)n1 | -8.63% |

| Compound | cytotoxicity at 70.5 h |
| --- | --- |
| CCOC(C)C(=O)NCc1ccc(N(C)C)cc1 (centres undefined) | -10.8% |
| O=C(c1ccc2cccc(F)c2n1)N1CCN(CCn2cccc2)CC1 | 9.26% |
| CCOc1ccc(S(=O)(=O)NCCc2ccc(N(C)C)cc2)cc1F | -1.54% |
| CCOCCN1CCN(Cc2coc(-c3cccc(F)c3)n2)CC1 | -1.54% |
| CC(C)C[C@@H]1N[C@H](C(=O)NC2CCOCC2)Cc2c[nH]c3cccc1c23 | -4.79% |
| CN(CCCOc1ccccc1Cl)C(=O)CN1C(=O)CCNC1=O | -3.2% |
| Cc1nnc(NC(=O)NC2CCOc3ccccc32)s1 (centres undefined) | -9.45% |
| CCCc1nc(CNc2cccc(C(=O)N3CCCC(O)C3)c2)no1 (centres undefined) | -4.84% |
| CCN(C)C(=O)c1ccc(N(C)Cc2cc(-c3cccnc3)no2)nc1 | 0.809% |
| N#CCc1ccc(NC(=O)Cn2cc(I)cn2)cc1 | -9.71% |
| CNC(=O)CN1CC[C@H]2CN(C(=O)c3ccc(C)cc3)C[C@H]2C1 | -4.71% |
| CC(C)(C)n1cc(C(=O)O)c(-c2ccc(F)cc2F)n1 | -18.2% |
| CN(C)[C@@H]1CCN(c2ncccn2)[C@H]1Cc1ccncc1 | -5.48% |
| CCn1cc(CN2CCCN(C(=O)c3sc(C)nc3C)CC2)cn1 | 4.77% |
| Cc1n[nH]c(C)c1CNC(=O)CSCc1ccccc1Cl | -0.888% |
| CN(C)C(=O)c1ccccc1NC(=O)N[C@@H]1c2ccccc2C[C@@H]1O | 0.722% |
| CCn1c(C)nnc1SCCNc1nc(C)ncc1S(C)(=O)=O | -11.4% |
| O=C(O)c1ccc(N2CCC(Oc3cccc(F)c3)CC2)nc1 | 14.5% |
| CN(C)c1ncc(NC(=O)c2ccccc2C(F)(F)F)cn1 | -4.64% |
| CCOc1cccc(C(C)NCc2ccc(OC)c(OC)c2OC)c1 (centres undefined) | 6.82% |
| COc1ncccc1C(=O)N1CC[C@H]2C[C@@H](c3noc(C)n3)O[C@@H]2C1 | -8.55% |
| CSCc1cccc(S(=O)(=O)N2CCCCCC2)c1 | -4.01% |

— ChEMBL document CHEMBL3507680, “University of Dundee, Gates Library screen for HepG2 cell viability”
